Measured values taken from ChEMBL document CHEMBL4602617, “Discovery and optimization of heteroaryl piperazines as potent and selective PI3Kδ inhibitors” (Bioorg Med Chem Lett, 2020).

Experiments:
[1] = target: 5-hydroxytryptamine receptor 2A (Homo sapiens) (UniProt P28223); test: Displacement of [3H]ketanserin from full length human recombinant 5HT2A receptor expressed in CHOK-1 cells at 10 uM measured after 60 mins by radiometric scintillation analysis relative to control; type: cell-based
[2] = target: Cyclin-dependent kinase 5/CDK5 activator 1 (Homo sapiens, UniProt Q00535); test: Inhibition of recombinant full length human His-tagged CDK5/p35 expressed in baculovirus expression system using serine/threonine-12 peptide as substrate incubated for 60 mins in presence of ATP by Z'-LYTE assay
[3] = target: MAP/microtubule affinity-regulating kinase 3 (Homo sapiens, UniProt P27448); test: Inhibition of recombinant full length human GST-tagged MARK3 expressed in baculovirus expression system using serine/threonine-25 peptide as substrate incubated for 60 mins in presence of ATP by Z'-LYTE assay
[4] = target: Ribosomal protein S6 kinase beta-1 (Homo sapiens, UniProt P23443); test: Inhibition of recombinant human GST-tagged p70S6K catalytic domain expressed in baculovirus expression system using serine/threonine-7 peptide as substrate incubated for 60 mins in presence of ATP by Z'-LYTE assay
Homo sapiens [5] = species on record: Homo sapiens; test: Inhibition of recombinant human PKA expressed in Escherichia coli at 10 uM using peptide as substrate after 15 mins by radiometric scintillation analysis relative to control
[6] = target: Casein kinase II subunit alpha' (Homo sapiens, UniProt P19784); test: Inhibition of recombinant human full-length GST-tagged CSNK2A2 expressed in baculovirus expression system using FRET-labeled Ser/Thr 11 peptide as substrate measured after 1 hr in presence of ATP by Z'-lyte assay
[7] = target: 5-hydroxytryptamine receptor 2B (Homo sapiens) (UniProt P41595); test: Displacement of [3H]lysergic acid diethylamide from full length human recombinant 5HT2B receptor expressed in CHOK-1 cells at 10 uM measured after 60 mins by radiometric scintillation analysis relative to control; type: cell-based
[8] = Oral bioavailability in dog at 0.5 mg/kg; type: ADME, organism-based, Canis lupus familiaris; conditions: in vivo
Sphingosine kinase 1 = Sphingosine kinase 1 (Homo sapiens, UniProt Q9NYA1); test: Inhibition of recombinant full length human GST-tagged SPHK1 expressed in baculovirus expression system using sphingosine lipid as substrate incubated for 60 mins in presence of ATP by Adapta assay
[9] = target: Beta-1 adrenergic receptor (Homo sapiens) (UniProt P08588); test: Displacement of [125I]cyanopindolol from full-length recombinant human beta1 adrenergic receptor expressed in CHOK1 cells at 10 uM measured after 120 mins by scintillation counting method relative to control; type: cell-based; conditions: CHO-K1
[10] = target: Mitogen-activated protein kinase 10 (Homo sapiens, UniProt P53779); test: Inhibition of recombinant full length N-terminal GST-tagged human JNK3 expressed in baculovirus expression system using Ser/Thr-04 peptide as substrate after 1 hr in presence of ATP by Z'LYTE assay
[11] = target: T1, Glutamate NMDA receptor (Rattus norvegicus) (UniProt P35439+Q00959+Q00960+Q00961+Q62645+Q8VHN2+Q9R1M7); test: Displacement of [3H]TCP from glutamate NMDA receptor phencyclidine binding site in Wistar rat cerebral cortex at 10 uM incubated for 45 mins by radiometric scintillation analysis relative to control
Homo sapiens [12] = species on record: Homo sapiens; test: Selectivity index, ratio IC50 for inhibition of recombinant human full-length N-terminal His6-tagged p110alpha/untagged full-length p85alpha expressed in baculovirus infected Sf21 cells to ratio IC50 for inhibition of recombinant human full-length N-terminal GST-tagged p110delta/untagged full-length p85alpha expressed in baculovirus infected Sf21 cells
[13] = target: Tyrosine-protein kinase JAK3 (Homo sapiens, UniProt P52333); test: Inhibition of recombinant human GST-tagged JAK3 catalytic domain (781 to 1124 residues) expressed in baculovirus expression system using tyrosine-6 peptide as substrate incubated for 60 mins in presence of ATP by Z'-LYTE assay
[14] = target: Estrogen receptor (Homo sapiens) (UniProt P03372); test: Displacement of [3H]estradiol from recombinant full length human recombinant ERalpha receptor expressed in Sf9 insect cells at 10 uMmeasured after 120 mins by radiometric scintillation analysis relative to control; conditions: 10 uM
[15] = Volume of drug distribution in rat at 0.5 mg/kg, iv or 1 mg/kg, po; type: ADME, organism-based; conditions: in vivo
[16] = target: T1, Glutamate NMDA receptor (Rattus norvegicus); test: Displacement of [3H]CGP-39653 from glutamate NMDA receptor in Wistar rat cerebral cortical membranes at 10 uM incubated for 20 mins by radiometric scintillation analysis relative to control
[17] = target: Tyrosine-protein kinase JAK1 (Homo sapiens, UniProt P23458); test: Inhibition of human recombinant GST tagged JAK1 expressed in baculovirus expression system using Tyr6 peptide as substrate measured after 1 hr in presence of ATP by Z'-LYTE assay
[18] = target: Vasopressin V1b receptor (Homo sapiens) (UniProt P47901); test: Displacement of [3H]-(Arg8)-Vasopressin from recombinant full length human V1B receptor expressed in CHO-K1 cells at 10 uM after 120 mins by radiometric scintillation analysis relative to control; type: cell-based
[19] = target: Beta-2 adrenergic receptor (Homo sapiens) (UniProt P07550); test: Displacement of [3H]CGP-12177 from full-length recombinant human beta2 adrenergic receptor expressed in CHO cells co-expressing NBR1 at 10 uM measured after 60 mins by scintillation counting method relative to control; type: cell-based
[20] = target: Receptor-type tyrosine-protein kinase FLT3 (Homo sapiens, UniProt P36888); test: Inhibition of recombinant human His-tagged FLT3 cytoplasmic domain (564 to 958 residues) expressed in baculovirus expression system using tyrosine-2 peptide as substrate incubated for 60 mins in presence of ATP by Z'-LYTE assay
[21] = target: Prostaglandin E2 receptor EP3 subtype (Homo sapiens) (UniProt P43115); test: Inhibition of human prostanoid EP3 receptor at 10 uM relative to control
[22] = target: 5-hydroxytryptamine receptor 6 (Homo sapiens) (UniProt P50406); test: Displacement of [3H] lysergic acid diethylamide from full length human recombinant 5HT6 receptor expressed in HeLa/E6-7 cells at 10 uM measured after 120 mins by radiometric scintillation analysis relative to control; type: cell-based
[23] = target: Casein kinase I isoform gamma-1 (Homo sapiens, UniProt Q9HCP0); test: Inhibition of recombinant human full-length GST-tagged CSNK1G1 expressed in baculovirus expression system using FRET-labeled Ser/Thr 05 peptide as substrate measured after 1 hr in presence of ATP by Z'-lyte assay
[24] = target: Alpha-1B adrenergic receptor (Rattus norvegicus) (UniProt P15823); test: Displacement of [3H]prazosin from alpha1b adrenergic receptor in Wistar rat liver membranes at 10 uM measured after 60 mins by scintillation counting method relative to control; type: cell membranes; conditions: Membrane
[25] = Half life in dog at 0.5 mg/kg, iv 1 mg/kg, po; type: ADME, organism-based, Canis lupus familiaris; conditions: in vivo
[26] = target: Peroxisome proliferator-activated receptor alpha (Homo sapiens) (UniProt Q07869); test: Inhibition of human PPARalpha expressed in Escherichia coli at 10 uM relative to control
[27] = target: Serine/threonine-protein kinase mTOR (Homo sapiens, UniProt P42345); test: Inhibition of recombinant human GST-tagged mTOR catalytic domain (1360 to 2549 residues) expressed in baculovirus expression system using serine/threonine-11 peptide as substrate incubated for 60 mins in presence of ATP by Z'-LYTE assay

Receptor-type tyrosine-protein kinase FLT3, sequence (P36888 whole entry, the tested form may be a part): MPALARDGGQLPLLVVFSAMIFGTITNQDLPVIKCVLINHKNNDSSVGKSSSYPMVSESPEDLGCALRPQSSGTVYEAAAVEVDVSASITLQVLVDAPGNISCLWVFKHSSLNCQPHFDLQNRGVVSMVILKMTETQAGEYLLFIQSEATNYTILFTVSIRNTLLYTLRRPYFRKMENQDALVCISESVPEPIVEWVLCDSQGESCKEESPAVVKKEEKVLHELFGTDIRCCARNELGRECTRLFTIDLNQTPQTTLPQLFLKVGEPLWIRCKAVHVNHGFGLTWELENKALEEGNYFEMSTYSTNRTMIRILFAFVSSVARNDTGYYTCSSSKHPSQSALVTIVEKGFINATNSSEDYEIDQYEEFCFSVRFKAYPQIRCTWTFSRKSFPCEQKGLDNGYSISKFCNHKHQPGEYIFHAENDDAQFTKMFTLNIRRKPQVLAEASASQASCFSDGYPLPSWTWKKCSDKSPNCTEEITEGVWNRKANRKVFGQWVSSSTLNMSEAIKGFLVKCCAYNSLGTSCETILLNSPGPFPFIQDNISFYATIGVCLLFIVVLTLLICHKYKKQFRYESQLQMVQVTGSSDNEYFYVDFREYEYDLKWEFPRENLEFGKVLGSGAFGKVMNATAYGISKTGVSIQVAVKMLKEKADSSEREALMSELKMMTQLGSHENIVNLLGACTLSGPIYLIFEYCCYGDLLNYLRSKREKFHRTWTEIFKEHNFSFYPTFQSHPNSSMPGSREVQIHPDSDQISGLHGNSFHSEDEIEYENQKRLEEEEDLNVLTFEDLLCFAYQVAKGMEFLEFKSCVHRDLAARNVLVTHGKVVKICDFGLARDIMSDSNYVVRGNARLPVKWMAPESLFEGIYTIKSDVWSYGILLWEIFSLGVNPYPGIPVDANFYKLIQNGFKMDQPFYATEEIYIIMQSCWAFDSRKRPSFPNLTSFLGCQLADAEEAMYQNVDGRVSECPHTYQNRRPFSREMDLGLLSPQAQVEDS
Ribosomal protein S6 kinase beta-1, sequence (P23443 whole entry, the tested form may be a part): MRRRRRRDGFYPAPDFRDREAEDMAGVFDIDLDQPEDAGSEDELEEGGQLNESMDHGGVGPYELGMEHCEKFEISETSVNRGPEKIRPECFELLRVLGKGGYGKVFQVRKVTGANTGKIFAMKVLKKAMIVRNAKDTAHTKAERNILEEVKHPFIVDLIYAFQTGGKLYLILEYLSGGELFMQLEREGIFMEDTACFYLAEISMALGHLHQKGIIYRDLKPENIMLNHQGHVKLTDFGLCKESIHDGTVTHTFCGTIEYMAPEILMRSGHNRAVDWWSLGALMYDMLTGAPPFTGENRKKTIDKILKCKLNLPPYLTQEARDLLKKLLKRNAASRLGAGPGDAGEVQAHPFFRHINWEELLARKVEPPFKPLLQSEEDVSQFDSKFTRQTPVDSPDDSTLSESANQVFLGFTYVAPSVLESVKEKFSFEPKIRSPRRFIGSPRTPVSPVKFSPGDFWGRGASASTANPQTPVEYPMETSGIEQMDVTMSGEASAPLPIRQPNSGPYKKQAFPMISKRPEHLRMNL
Vasopressin V1b receptor (Homo sapiens), sequence (P47901 whole entry): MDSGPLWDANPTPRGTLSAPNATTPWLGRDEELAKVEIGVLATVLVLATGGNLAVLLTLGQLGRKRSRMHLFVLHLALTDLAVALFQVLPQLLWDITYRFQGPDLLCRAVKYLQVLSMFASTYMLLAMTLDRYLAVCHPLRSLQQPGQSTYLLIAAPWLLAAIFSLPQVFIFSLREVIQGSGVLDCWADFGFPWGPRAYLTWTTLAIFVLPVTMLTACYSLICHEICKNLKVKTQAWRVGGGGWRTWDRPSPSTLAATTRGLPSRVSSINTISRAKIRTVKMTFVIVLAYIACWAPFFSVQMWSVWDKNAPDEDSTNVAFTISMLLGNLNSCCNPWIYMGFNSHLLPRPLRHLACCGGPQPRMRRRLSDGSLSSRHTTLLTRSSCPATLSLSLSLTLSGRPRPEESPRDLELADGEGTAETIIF
5-hydroxytryptamine receptor 2B (Homo sapiens), sequence (P41595 whole entry): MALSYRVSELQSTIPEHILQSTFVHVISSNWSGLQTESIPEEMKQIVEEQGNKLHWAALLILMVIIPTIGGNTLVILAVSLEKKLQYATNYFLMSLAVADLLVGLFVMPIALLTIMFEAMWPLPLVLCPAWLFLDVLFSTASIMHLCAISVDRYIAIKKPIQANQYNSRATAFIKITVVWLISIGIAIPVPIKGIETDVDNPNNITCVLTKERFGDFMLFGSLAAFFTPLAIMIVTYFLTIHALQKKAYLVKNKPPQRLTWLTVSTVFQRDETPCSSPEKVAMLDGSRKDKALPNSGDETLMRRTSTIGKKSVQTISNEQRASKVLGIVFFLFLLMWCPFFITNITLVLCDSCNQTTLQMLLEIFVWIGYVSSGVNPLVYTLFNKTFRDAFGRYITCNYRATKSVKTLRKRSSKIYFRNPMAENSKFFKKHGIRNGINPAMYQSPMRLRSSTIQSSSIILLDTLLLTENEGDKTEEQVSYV
Peroxisome proliferator-activated receptor alpha (Homo sapiens), sequence (Q07869 whole entry, the tested form may be a part): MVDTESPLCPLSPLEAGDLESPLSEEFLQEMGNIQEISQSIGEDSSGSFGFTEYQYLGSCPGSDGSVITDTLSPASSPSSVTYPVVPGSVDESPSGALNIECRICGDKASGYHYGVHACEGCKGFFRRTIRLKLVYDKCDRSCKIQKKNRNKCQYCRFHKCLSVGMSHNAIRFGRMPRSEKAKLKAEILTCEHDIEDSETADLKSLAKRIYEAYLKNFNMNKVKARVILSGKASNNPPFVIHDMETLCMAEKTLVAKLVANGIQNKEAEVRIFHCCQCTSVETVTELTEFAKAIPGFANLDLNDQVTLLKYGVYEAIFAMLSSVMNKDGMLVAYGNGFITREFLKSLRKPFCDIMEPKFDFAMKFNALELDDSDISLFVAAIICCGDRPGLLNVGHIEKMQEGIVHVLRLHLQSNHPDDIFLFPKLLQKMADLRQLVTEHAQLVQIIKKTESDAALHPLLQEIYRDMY
Estrogen receptor (Homo sapiens), sequence (P03372 whole entry): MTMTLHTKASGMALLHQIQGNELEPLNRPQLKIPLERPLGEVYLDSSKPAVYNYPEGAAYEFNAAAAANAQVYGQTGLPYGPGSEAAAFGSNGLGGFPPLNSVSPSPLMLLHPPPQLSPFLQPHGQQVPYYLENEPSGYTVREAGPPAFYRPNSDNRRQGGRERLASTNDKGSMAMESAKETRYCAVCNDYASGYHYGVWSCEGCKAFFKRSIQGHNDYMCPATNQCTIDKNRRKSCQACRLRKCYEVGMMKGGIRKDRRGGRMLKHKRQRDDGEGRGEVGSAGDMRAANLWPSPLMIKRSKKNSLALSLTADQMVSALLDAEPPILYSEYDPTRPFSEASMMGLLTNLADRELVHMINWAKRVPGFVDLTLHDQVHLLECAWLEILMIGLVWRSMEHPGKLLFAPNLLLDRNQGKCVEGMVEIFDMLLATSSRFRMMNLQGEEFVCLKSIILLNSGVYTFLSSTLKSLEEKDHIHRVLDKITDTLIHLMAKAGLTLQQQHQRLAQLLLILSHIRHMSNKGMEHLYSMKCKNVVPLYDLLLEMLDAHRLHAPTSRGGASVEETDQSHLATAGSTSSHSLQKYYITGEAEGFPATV
Casein kinase II subunit alpha', sequence (P19784 whole entry): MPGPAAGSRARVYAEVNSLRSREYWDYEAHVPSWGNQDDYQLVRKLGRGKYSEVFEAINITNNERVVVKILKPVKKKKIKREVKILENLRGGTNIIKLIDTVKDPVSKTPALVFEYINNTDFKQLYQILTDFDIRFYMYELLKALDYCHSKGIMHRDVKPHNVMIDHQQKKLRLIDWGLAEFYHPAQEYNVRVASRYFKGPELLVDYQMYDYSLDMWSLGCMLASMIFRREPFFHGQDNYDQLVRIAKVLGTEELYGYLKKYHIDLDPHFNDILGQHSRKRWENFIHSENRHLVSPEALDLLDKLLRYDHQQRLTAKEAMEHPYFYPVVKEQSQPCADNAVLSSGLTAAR
Mitogen-activated protein kinase 10, sequence (P53779 whole entry): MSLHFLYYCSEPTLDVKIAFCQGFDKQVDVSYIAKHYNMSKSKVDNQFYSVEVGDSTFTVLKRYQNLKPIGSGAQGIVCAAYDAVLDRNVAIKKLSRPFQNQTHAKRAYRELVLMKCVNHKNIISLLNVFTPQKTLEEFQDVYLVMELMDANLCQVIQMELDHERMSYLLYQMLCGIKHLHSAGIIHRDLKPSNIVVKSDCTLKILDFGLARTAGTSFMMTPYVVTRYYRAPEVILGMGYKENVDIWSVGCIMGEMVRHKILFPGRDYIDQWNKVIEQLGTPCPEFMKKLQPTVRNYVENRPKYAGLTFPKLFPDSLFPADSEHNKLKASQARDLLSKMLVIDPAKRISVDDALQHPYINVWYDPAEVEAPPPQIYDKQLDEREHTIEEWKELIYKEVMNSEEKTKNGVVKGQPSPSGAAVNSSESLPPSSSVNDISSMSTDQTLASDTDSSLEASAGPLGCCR
Sphingosine kinase 1, sequence (Q9NYA1 whole entry): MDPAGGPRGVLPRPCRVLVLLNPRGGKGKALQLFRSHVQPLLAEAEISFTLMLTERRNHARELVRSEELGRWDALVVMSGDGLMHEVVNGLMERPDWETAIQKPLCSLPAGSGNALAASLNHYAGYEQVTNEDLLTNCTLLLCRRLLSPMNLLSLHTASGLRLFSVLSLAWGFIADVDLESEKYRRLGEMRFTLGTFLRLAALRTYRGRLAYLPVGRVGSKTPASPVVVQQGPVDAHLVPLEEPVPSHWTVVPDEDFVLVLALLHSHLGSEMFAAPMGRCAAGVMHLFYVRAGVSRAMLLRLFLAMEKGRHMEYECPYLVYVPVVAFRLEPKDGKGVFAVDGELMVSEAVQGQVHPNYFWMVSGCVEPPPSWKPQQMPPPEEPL

With `C[C@@H]1C[C@H]1C(=O)N1CCN(c2cnc(C#N)c(-c3cnn(C)c3)n2)C[C@H]1C` the inhibition [1] was 6%, the IC50 [2] was greater than 100 µM and the IC50 [3] was greater than 100 µM. The IC50 [4] was greater than 100 µM, the inhibition (Homo sapiens [5]) was -3% and the IC50 [6] was greater than 100 µM. The inhibition [7] was 19%, the bioavailability [8] was 100% and the IC50 (Sphingosine kinase 1) was 13.8 µM. The inhibition [9] was 4%, the IC50 [10] was 5.37 µM and the inhibition [11] was -4%. The Ratio IC50 (Homo sapiens [12]) was greater than 373, the IC50 [13] was 13.7 µM and the inhibition [14] was 0%. For the same compound, the Vd [15] was 1.1 L/kg, the inhibition [16] was -1% and the IC50 [17] was greater than 100 µM. For the same compound, the inhibition [18] was 6%, the inhibition [19] was 7% and the IC50 [20] was greater than 100 µM. It also gave an inhibition [21] of 7%, an inhibition [22] of 7% and an IC50 [23] greater than 100 µM. For the same compound, the inhibition [24] was -1%, the half-life [25] was 2.9 h and the inhibition [26] was greater than 50%. The IC50 [27] was greater than 100 µM.
